# From US20240197715A1, “PHARMACEUTICAL COMBINATIONS AND USES THEREOF” (NOVARTIS AG, priority 2022, published 2024)
# Legend:
# SW48 [1] = test: Proliferation assay SW48; format: cell-based; conditions: Homo sapiens, assay of WO2022/249060
# Text: (§1) According to the assays disclosed in the application PCT/IB2022/054850 published as WO2022/249060, which is hereby incorporated by reference, the compounds were active as shown in Table X
# WRN = WRN (Homo sapiens, UniProt Q14191); test: WRN ATPase activity assay; format: biochemical; conditions: assay of WO2022/249060
# Text: as §1
# DLD1-WRN-KO = test: Proliferation assay DLD1-WRN-KO; format: cell-based; conditions: assay of WO2022/249060
# Text: as §1
# SW48 [2] = test: CellTiterGlo in vitro viability, 4-day treatment, SW48; format: cell-based
# Text: (§2) Growth inhibition %: 0-99=delayed proliferation, 100=growth arrest/stasis, 101-200=reduction in cell number/cell death.
# HCT116 = test: CellTiterGlo in vitro viability, 4-day treatment, HCT116; format: cell-based
# Text: as §2
# [3] = tested on: SW48 colorectal carcinoma cells; test: SW48 xenograft efficacy in nude mice; format: in vivo; conditions: Example 12; trametinib 0.3 mg/kg p.o. qd; BRAF WT SW48
# Method: All animals were allowed to adapt for 7 days and housed in a pathogen-controlled environment (5 mice/Type III cage) with access to food and water ad libitum and were identified with transponders.
# 5.0×10^6 SW48 colorectal carcinoma cells were implanted subcutaneously in nude mice (Charles River, Germany). Treatment was initiated when tumors reached 150-200 mm^3 volume. Efficacy studies and tumor response were measured as above.
# Sequence of WRN (Q14191 whole entry): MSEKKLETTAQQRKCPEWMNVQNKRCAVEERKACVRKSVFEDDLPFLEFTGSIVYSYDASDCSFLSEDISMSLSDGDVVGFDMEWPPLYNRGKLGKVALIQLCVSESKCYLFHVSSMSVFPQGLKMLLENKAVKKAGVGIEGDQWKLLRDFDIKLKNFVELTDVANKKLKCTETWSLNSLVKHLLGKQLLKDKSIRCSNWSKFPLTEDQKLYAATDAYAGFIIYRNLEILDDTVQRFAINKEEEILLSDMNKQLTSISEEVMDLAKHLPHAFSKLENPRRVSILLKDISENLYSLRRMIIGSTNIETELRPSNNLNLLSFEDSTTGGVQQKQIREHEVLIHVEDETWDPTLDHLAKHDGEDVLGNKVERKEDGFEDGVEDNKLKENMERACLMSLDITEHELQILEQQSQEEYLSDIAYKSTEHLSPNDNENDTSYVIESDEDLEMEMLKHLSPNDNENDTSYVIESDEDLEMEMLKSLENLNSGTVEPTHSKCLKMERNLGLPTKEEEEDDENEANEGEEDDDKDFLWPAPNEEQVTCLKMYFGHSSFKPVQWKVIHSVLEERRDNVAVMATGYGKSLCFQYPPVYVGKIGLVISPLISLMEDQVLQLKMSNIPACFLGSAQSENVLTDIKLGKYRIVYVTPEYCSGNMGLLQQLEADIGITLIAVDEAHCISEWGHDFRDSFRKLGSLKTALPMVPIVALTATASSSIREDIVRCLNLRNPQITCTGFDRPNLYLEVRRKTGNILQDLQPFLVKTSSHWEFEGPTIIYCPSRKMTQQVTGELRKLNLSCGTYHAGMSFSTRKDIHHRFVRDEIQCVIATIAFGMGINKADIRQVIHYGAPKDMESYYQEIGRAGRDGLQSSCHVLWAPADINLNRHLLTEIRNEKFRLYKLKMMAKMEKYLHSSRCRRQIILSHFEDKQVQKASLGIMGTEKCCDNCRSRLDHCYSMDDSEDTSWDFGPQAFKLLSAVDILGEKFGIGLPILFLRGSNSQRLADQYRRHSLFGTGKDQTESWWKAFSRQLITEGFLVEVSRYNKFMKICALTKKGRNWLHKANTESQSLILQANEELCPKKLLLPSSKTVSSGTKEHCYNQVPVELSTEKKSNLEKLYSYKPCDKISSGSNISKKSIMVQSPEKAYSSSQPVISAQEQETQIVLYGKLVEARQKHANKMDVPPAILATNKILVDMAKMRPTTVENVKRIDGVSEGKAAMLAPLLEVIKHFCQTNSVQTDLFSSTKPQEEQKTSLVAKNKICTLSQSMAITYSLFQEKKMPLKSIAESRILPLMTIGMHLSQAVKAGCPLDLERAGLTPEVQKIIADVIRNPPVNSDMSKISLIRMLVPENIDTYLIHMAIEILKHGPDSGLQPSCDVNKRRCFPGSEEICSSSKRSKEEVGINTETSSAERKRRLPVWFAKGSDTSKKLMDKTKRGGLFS
Compound,"proliferation of SW48 cells, single agent (SW48 [2])",further results
"CCc1c(N2CCN(C(=O)c3ncccc3O)CC2)c(=O)n2nc(C3=CCN(C(=O)CCC(=O)N[C@H](C(=O)N4C[C@H](O)C[C@H]4C(=O)N[C@@H](C)c4ccc(-c5scnc5C)cc4)C(C)(C)C)CC3)nc2n1CC(=O)Nc1ccc(C(F)(F)F)cc1C [X, (2S,4R)-1-((S)-2-(4-(4-(5-ethyl-6-(4-(3-hydroxypicolinoyl)piperazin-1-yl)-4-(2-((2-methyl-4-(trifluoromethyl)phenyl)amino)-2-oxoethyl)-7-oxo-4,7-dihydro-[1,2,4]triazolo[1,5-a]pyrimidin-2-yl)-3,6-dihydropyridin-1(2H)-yl)-4-oxobutanamido)-3,3-dimethylbutanoyl)-4-hydroxy-N—((S)-1-(4-(4-methylthiazol-5-yl)phenyl)ethyl)pyrrolidine-2-carboxamide]",–,GI50 (SW48 [1]): 3840 nM; IC50 (WRN): 160 nM; GI50 (DLD1-WRN-KO): > 10000 nM
CCc1c(N2CCN(C(=O)c3ncccc3O)CC2)c(=O)n2nc(C3=CCOCC3)nc2n1CC(=O)Nc1ccc(C(F)(F)F)cc1C [Compound B],inhibited,"proliferation of HCT116 cells, single agent (HCT116): inhibited"
"Nc1ccn([C@@H]2O[C@H](CO)[C@@H](O)C2(F)F)c(=O)n1 [Gemcitabin, gemcitabine]",inhibited,–
CCc1nc2c(NC(C)(C)C)nc(Nc3ccc4nc(OCCN5CCOCC5)ccc4c3)nc2[nH]1 [QAP1],inhibited,–
O=c1[nH]cc(F)c(=O)[nH]1 [5-fluorouracil],inhibited,–
bleomycin,inhibited,–
C[C@@H]1CN(CC(=O)Nc2ccc3c(c2)Cc2cccc(-c4cc(=O)cc(N5CCOCC5)o4)c2S3)C[C@H](C)O1 [KU-60019],inhibited,–
"COc1cccc2c1C(=O)c1c(O)c3c(c(O)c1C2=O)C[C@@](O)(C(=O)CO)C[C@@H]3O[C@H]1C[C@H](N)[C@H](O)[C@H](C)O1 [Doxorubicin, doxorubicin]",inhibited,"proliferation of HCT116 cells, single agent (HCT116): inhibited"
"C[C@@]1(CO)[C@H](O)CC[C@@]2(C)[C@H]1CC[C@H]1C[C@@H]3C[C@@]12CC[C@]3(O)CO [Aphidicolin, aphidicolin]",inhibited,–
O=c1cc(N2CCOCC2)oc2c(-c3cccc4c3sc3ccccc34)cccc12 [NU7441 (KU-57788)],inhibited,–
N.N.[Cl][Pt][Cl] [cisplatin],inhibited,–
CC(=O)Nc1cccc(-n2c(=O)n(C3CC3)c(=O)c3c(Nc4ccc(I)cc4F)n(C)c(=O)c(C)c32)c1 [trametinib],–,effect on tumor growth [3]: no effect
"CC[C@@]1(O)C(=O)OCc2c1cc1n(c2=O)Cc2cc3ccccc3nc2-1 [Camptothecin, camptothecin]",inhibited,–
"CCc1c(N2CCN(C(=O)c3ncccc3O)CC2)c(=O)n2nc(C3=CCN(C(=O)CCCCCOc4ccc5c(c4)C(=O)N(C4CCC(=O)NC4=O)C5)CC3)nc2n1CC(=O)Nc1ccc(C(F)(F)F)cc1C (stereo not drawn) [Z, 2-(2-(1-(6-((2-(2,6-dioxopiperidin-3-yl)-3-oxoisoindolin-5-yl)oxy)hexanoyl)-1,2,3,6-tetrahydropyridin-4-yl)-5-ethyl-6-(4-(3-hydroxypicolinoyl)piperazin-1-yl)-7-oxo-[1,2,4]triazolo[1,5-a]pyrimidin-4(7H)-yl)-N-(2-methyl-4-(trifluoromethyl)phenyl)acetamide]",–,GI50 (SW48 [1]): 1310 nM; IC50 (WRN): 90 nM; GI50 (DLD1-WRN-KO): > 10000 nM
COc1ncc(-c2nc3c(n2C(C)C)[C@H](c2ccc(Cl)cc2)N(c2cc(Cl)cn(C)c2=O)C3=O)c(OC)n1 [HDM201],to some extent,–
"CCc1c(N2CCN(C(=O)c3ncccc3O)CC2)c(=O)n2nc(C3=CCN(C(=O)[C@H](CC(C)C)NC(=O)[C@@H](O)[C@H](N)Cc4ccccc4)CC3)nc2n1CC(=O)Nc1ccc(C(F)(F)F)cc1C [Y, (2S,3R)-3-amino-N—((S)-1-(4-(5-ethyl-6-(4-(3-hydroxypicolinoyl)piperazin-1-yl)-4-(2-((2-methyl-4-(trifluoromethyl)phenyl)amino)-2-oxoethyl)-7-oxo-4,7-dihydro-[1,2,4]triazolo[1,5-a]pyrimidin-2-yl)-3,6-dihydropyridin-1(2H)-yl)-4-methyl-1-oxopentan-2-yl)-2-hydroxy-4-phenylbutanamide]",–,GI50 (SW48 [1]): 1190 nM; IC50 (WRN): 140 nM; GI50 (DLD1-WRN-KO): > 10000 nM
